In general, TD50 refers to the dose at which the toxic effect under study appears in half of the subjects.

This series relates to rodent lifetime carcinogenesis bioassay, tumor incidence TD50. As to the kind of experiment: chronic cancer bioassays in animals – CPDB, compiled studies (AID 1745844).

On to `CC(C)n1c(/C=C/[C@H](O)C[C@H](O)CC(=O)O)c(-c2ccc(F)cc2)c2ccccc21`, for which the TD50 reads like this: (rat, strain Charles River CD (Sprague-Dawley), females, by gavage, site: liver, lesion: hepatocellular adenoma, dosed 104 weeks, study length 104 weeks) 2780 mg/kg/day; (rat, strain Charles River CD (Sprague-Dawley), females, by gavage, site: liver, lesion: hepatocellular carcinoma, dosed 104 weeks, study length 104 weeks) 916 mg/kg/day; (rat, strain Charles River CD (Sprague-Dawley), females, by gavage, site: stomach, lesion: papilloma, dosed 104 weeks, study length 104 weeks) 916 mg/kg/day; (rat, strain Charles River CD (Sprague-Dawley), males, by gavage, site: stomach, lesion: papilloma, dosed 104 weeks, study length 104 weeks) 610 mg/kg/day; (rat, strain Charles River CD (Sprague-Dawley), males, by gavage, site: stomach, lesion: squamous-cell carcinoma, dosed 104 weeks, study length 104 weeks) 919 mg/kg/day; (rat, strain Charles River CD (Sprague-Dawley), males, by gavage, site: thyroid gland, lesion: follicular adenocarcinoma, dosed 104 weeks, study length 104 weeks) 258 mg/kg/day. For the same compound, the TD50 (rat, strain Charles River CD (Sprague-Dawley), males, by gavage, site: thyroid gland, lesion: follicular-cell adenoma, dosed 104 weeks, study length 104 weeks) is 125 mg/kg/day.

Take `CCn1c2ccccc2c2cc(N)ccc21`: the TD50 (mouse, strain B6C3F1, females, in feed, site: any site (literature study), lesion: several types, types named in the paper, dosed 78 weeks, study length 95 weeks) was 41.8 mg/kg/day; the TD50 (mouse, strain B6C3F1, females, in feed, site: liver, lesion: hepatocellular adenoma + hepatocellular carcinoma + neoplastic nodule, dosed 78 weeks, study length 95 weeks) came out at 33 mg/kg/day; the TD50 (mouse, strain B6C3F1, females, in feed, site: liver, lesion: hepatocellular carcinoma, dosed 78 weeks, study length 95 weeks) was 33 mg/kg/day; the TD50 (mouse, strain B6C3F1, females, in feed, site: lung, lesion: alveolar/bronchiolar adenoma + alveolar/bronchiolar carcinoma, dosed 78 weeks, study length 95 weeks) came to 1780 mg/kg/day; the TD50 (mouse, strain B6C3F1, males, in feed, site: any site (literature study), lesion: several types, types named in the paper, dosed 78 weeks, study length 95 weeks) stood at 70.6 mg/kg/day; the TD50 (mouse, strain B6C3F1, males, in feed, site: liver, lesion: hepatocellular adenoma + hepatocellular carcinoma + neoplastic nodule, dosed 78 weeks, study length 95 weeks) was 49.8 mg/kg/day. For the same compound, the TD50 is 49.8 mg/kg/day (mouse, strain B6C3F1, males, in feed, site: liver, lesion: hepatocellular adenoma + hepatocellular carcinoma, dosed 78 weeks, study length 95 weeks); 46.4 mg/kg/day (mouse, strain B6C3F1, males, in feed, site: liver, lesion: hepatocellular carcinoma, dosed 78 weeks, study length 95 weeks); 151 mg/kg/day (rat, strain Fischer 344, females, in feed, site: Zymbal's gland, lesion: carcinoma, NOS + squamous-cell carcinoma, dosed 78 weeks, study length 107 weeks); 212 mg/kg/day (rat, strain Fischer 344, females, in feed, site: Zymbal's gland, lesion: squamous-cell carcinoma, dosed 78 weeks, study length 107 weeks); 44.7 mg/kg/day (rat, strain Fischer 344, females, in feed, site: any site (literature study), lesion: several types, types named in the paper, dosed 78 weeks, study length 107 weeks); 55.1 mg/kg/day (rat, strain Fischer 344, females, in feed, site: liver + uterus + Zymbal's gland, lesion: hepatocellular carcinoma + neoplastic nodule + adenocarcinoma, NOS + carcinoma, NOS + squamous-cell carcinoma, dosed 78 weeks, study length 107 weeks). Besides, the TD50 (rat, strain Fischer 344, females, in feed, site: liver, lesion: hepatocellular adenoma + hepatocellular carcinoma + neoplastic nodule, dosed 78 weeks, study length 107 weeks) is 237 mg/kg/day; the TD50 (rat, strain Fischer 344, females, in feed, site: liver, lesion: hepatocellular carcinoma + neoplastic nodule, dosed 78 weeks, study length 107 weeks) is 237 mg/kg/day; the TD50 (rat, strain Fischer 344, females, in feed, site: uterus, lesion: adenocarcinoma, NOS, dosed 78 weeks, study length 107 weeks) was 106 mg/kg/day; the TD50 (rat, strain Fischer 344, males, in feed, site: Zymbal's gland, lesion: carcinoma, NOS + squamous-cell carcinoma, dosed 78 weeks, study length 106 weeks) is 240 mg/kg/day; the TD50 (rat, strain Fischer 344, males, in feed, site: any site (literature study), lesion: several types, types named in the paper, dosed 78 weeks, study length 106 weeks) was 42.7 mg/kg/day; the TD50 (rat, strain Fischer 344, males, in feed, site: liver + skin + subcutaneous tissue + Zymbal's gland, lesion: hepatocellular carcinoma + neoplastic nodule + basal-cell carcinoma + squamous-cell carcinoma + squamous-cell papilloma + carcinom, dosed 78 weeks, study length 106 weeks) was 28.1 mg/kg/day. Further, the TD50 is, setting by setting: (rat, strain Fischer 344, males, in feed, site: liver, lesion: hepatocellular adenoma + hepatocellular carcinoma + neoplastic nodule, dosed 78 weeks, study length 106 weeks) 39.2 mg/kg/day; (rat, strain Fischer 344, males, in feed, site: liver, lesion: hepatocellular carcinoma + neoplastic nodule, dosed 78 weeks, study length 106 weeks) 39.2 mg/kg/day; (rat, strain Fischer 344, males, in feed, site: liver, lesion: hepatocellular carcinoma, dosed 78 weeks, study length 106 weeks) 156 mg/kg/day; (rat, strain Fischer 344, males, in feed, site: skin + subcutaneous tissue, lesion: basal-cell carcinoma + squamous-cell carcinoma + squamous-cell papilloma, dosed 78 weeks, study length 106 weeks) 203 mg/kg/day; (rat, strain Fischer 344, males, in feed, site: skin + subcutaneous tissue, lesion: squamous-cell carcinoma + squamous-cell papilloma, dosed 78 weeks, study length 106 weeks) 257 mg/kg/day.

These data come from PubChem BioAssay AID1745844 (Carcinogenic Potency Database (CPDB), 2022).
